Assay results reported in publication PMC5569891 (Chembiochem : a European journal of chemical biology, 2017).

Target: T1, HsSQS (Homo sapiens, UniProt P37268)
T1 sequence (P37268 1-417): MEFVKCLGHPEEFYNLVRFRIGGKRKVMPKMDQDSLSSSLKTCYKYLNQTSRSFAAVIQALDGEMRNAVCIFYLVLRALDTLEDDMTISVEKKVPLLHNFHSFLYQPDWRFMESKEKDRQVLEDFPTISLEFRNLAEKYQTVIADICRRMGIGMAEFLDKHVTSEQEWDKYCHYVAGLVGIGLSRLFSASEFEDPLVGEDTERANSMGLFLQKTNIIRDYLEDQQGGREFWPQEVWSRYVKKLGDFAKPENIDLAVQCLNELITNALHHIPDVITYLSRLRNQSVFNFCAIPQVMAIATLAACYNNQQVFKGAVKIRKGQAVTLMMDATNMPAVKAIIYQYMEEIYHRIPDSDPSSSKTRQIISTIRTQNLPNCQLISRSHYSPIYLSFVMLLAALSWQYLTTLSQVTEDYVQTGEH
Experiment: LC-MS of products
Format: biochemical
Details: no NADPH

CC(C)=CCC/C(C)=C/CC/C(C)=C/COP(=O)(O)OP(=O)(O)O [compound 1, farnesyl diphosphate]
LC-MS of products (PSPP): LC-MS traces showing reaction products of NmHpnD+FPP (in blue) and HsSQS+FPP (in red)
